{"source": "patent US9890327B2", "about": "“Phosphorescent transition metal complex, its preparation and use” (City University of Hong Kong, priority 2015, dated 2018)", "key": {"[1]": {"settings": "degassed CH3CN solution, λex=355 nm; cited from earlier work"}, "[2]": {"assay": "Photophysical properties (emission, lifetime, luminescence quantum yield)", "assay_type": "physicochemical", "settings": "for Φem / λem / τo: 298 K", "experimental": "^1H NMR spectra were recorded on a Bruker 400 MHz AVANCE III spectrometer at 298 K using deuterated solvents. Chemical shifts (8, ppm) were reported relative to tetramethylsilane (TMS). Positive-ion electrospray ionization (ESI) mass spectra were recorded on a Perkin Elmer Sciex API 365 mass spectrometer at 298 K. IR spectra of the samples in KBr pellets were recorded in the range of 4000-400 cm^−1 using a Perkin Elmer FTIR-1600 spectrophotometer. Electronic absorption and steady-state emission spectra were recorded on a Hewlett-Packard 8453 diode array spectrophotometer and a SPEX Fluorolog 3-TCSPC spectrofluorometer, respectively. Emission lifetimes were measured in the Fast MCS or TCSPC mode with a NanoLED N-375 as the excitation source. Unless specified otherwise, all solutions for photophysical studies were degassed with no fewer than four successive freeze-pump-thaw cycles and stored in a 10 cm^3 round bottomed flask equipped with a side-arm 1-cm fluorescence cuvette and sealed from the atmosphere by a Rotaflo HP6/6 quick-release Teflon stopper. Luminescence quantum yields were measured by the optically dilute method (Demas, J N., Crosby, G A J., Phys. Chem., 1971, 75:991-1024) using a degassed CH3CN solution of [Re(phen)(CO)3(pyridine)](CF3SO3) (phen=1,10-phenanthroline) (φem=0.18, λex=355 nm) as the standard solution.\nThe photophysical data are summarized in Table 2, and the emission spectra of metal complex of Formula (IV) in CH3CN and aqueous buffer solutions at 298 K are shown in FIG. 2."}, "[3]": {"assay": "Reaction kinetics with H2O2 under pseudo first-order conditions, UV-Visible spectroscopy", "assay_type": "physicochemical", "settings": "298 K", "experimental": "Kinetics experiments for the reactions of metal complex of Formula (IV) with H2O2 were performed under pseudo first-order conditions. Metal complex of Formula (IV) (10 μM) was reacted with H2O2 in a 1:100, 1:200, 1:400, or 1:800 molar ratio in potassium phosphate buffer (50 mM, pH 7.4)/DMSO (99:1, v/v) at 298 K. The reactions were monitored by UV-Visible spectroscopy at ca. 343 nm. The kobs values were determined by fitting the experimental data to the first-order rate equation, [A]=[A]oe^−kt. The k2 value was determined by plotting kobs versus [H2O2] and the rate constant corresponds to the determined slope.\nThe change in absorption spectrum of metal complex of Formula (IV) (10 μM) in aerated potassium phosphate buffer (50 mM, pH 7.4)/DMSO (99:1, v/v) in the presence of H2O2(1 mM) at 298 K is shown in FIG. 3. […] The pseudo first-order rate constant (kobs) of reaction of metal complex of Formula (IV) (10 μM) was determined to be (0.6375±0.0092)×10^−3 s^−1. The plot of kobs of reactions of metal complex of Formula (IV) with H2O2 against various concentrations of H2O2 is shown in FIG. 4."}, "[4]": {"assay": "H2O2-sensing emission titration", "assay_type": "physicochemical", "settings": "complex 10 μM, buffer pH 7.4/DMSO (99:1)", "experimental": "(§1) In H2O2-sensing studies, various amounts of H2O2 (25 mM; 0-20 μL) were added to a series of solutions containing metal complex of Formula (IV) (10 μM) in potassium phosphate buffer (50 mM, pH 7.4)/DMSO (99:1, v/v). The reaction mixtures were incubated in the dark at room temperature for 1.5 h, and their emission spectra were then measured. The limit of detection was determined according to the equation, […]. In the selectivity studies, different reactive oxygen species (100 μM) were added into a series of solutions containing metal complex of Formula (IV) (10 μM) in potassium phosphate buffer (50 mM, pH 7.4)/DMSO (99:1, v/v). The reaction mixtures were incubated in the dark at room temperature for 1.5 h, and their emission spectra were then measured. H2O2 was diluted from a stabilized 30% aqueous solution. TBHP was diluted from a 70% aqueous solution. NOC-7, KO2, and NaOCl were used as the sources of NO, O2^−, and ClO^−, respectively. Singlet oxygen (^1O2) was generated by the reaction of NaOCl and H2O2(Held, A M. Et al., Am. Chem. Soc., 1978, 100:5732-5740; Aubry, J M., J. Am. Chem. Soc., 1985, 107:5844-5849). Hydroxyl radicals (OH.) were generated by the reaction of ammonium iron(II) sulfate hexahydrate and H2O2.\nThe reactivity of metal complex of Formula (IV) with H2O2 was examined by emission titrations and the emission titration traces and corresponding titration curve are shown in FIGS. 5 and 6, respectively. […] The detection limit was calculated to be 1.84 μM."}, "[5]": {"assay": "Selectivity study: emission response toward reactive oxygen species", "assay_type": "physicochemical", "settings": "complex 10 μM, buffer pH 7.4/DMSO (99:1), 1.5 h", "experimental": "as §1, with “H2O2. […]” for “H2O2.”"}, "HeLa cells [6]": {"system": "HeLa cells", "assay": "Cytotoxicity by MTT assay", "assay_type": "cell-based", "experimental": "To confirm the suitability of the possibility of metal complex of Formula (IV) as phosphorescent sensor for intracellular H2O2, the cytotoxicity of metal complex of Formula (IV) was examined by the MTT assay.\nHeLa cells were cultured in growth medium in a humidified chamber at 37° C. under a 5% CO2 atmosphere. The cells were subcultured every 2-3 days. HeLa cells were seeded in a 96-well flat-bottomed microplate (10,000 cells/well) in a growth medium (100 μL) and incubated at 37° C. under a 5% CO2 atmosphere for 24 h. […] The wells containing untreated cells were used as blank controls. […] Then MTT in PBS (5 mg/mL; 10 μL) was added to each well. The microplate was then incubated for another 4 h. The medium was removed and DMSO (200 μL) was added to each well. The microplate was further incubated for 10 min. The absorbance of the solutions at 570 nm was measured with a SPECTRAmax 340 microplate reader (Molecular Devices Corp., Sunnyvale, Calif.). Percentage cell survival was calculated relative to the absorbance of the control for each treatment. The viability of untreated cells was assumed to be 100%."}, "HeLa cells [7]": {"system": "HeLa cells", "assay": "Live-cell imaging by laser-scanning confocal microscopy (uptake, mitochondrial co-staining, intracellular H2O2)", "assay_type": "cell-based", "experimental": "For co-staining experiments, HeLa cells in growth medium were seeded on a sterilized coverslip in a 35-mm tissue culture dish and grown at 37° C. under a 5% CO2 atmosphere for 48 h. The medium was removed and the cells were incubated with metal complex of Formula (IV) (10 μM) in growth medium/DMSO (99:1, v/v) for 40 min and then with MitoTracker Deep Red FM (100 nM) in a FBS-free medium for another 20 min. Prior to imaging, the cells were washed with PBS (1 mL×3), mounted onto a sterilized glass slide, and then imaged using a Leica TCS SPE confocal microscope with an oil immersion 63× objective. The excitation wavelength for metal complex of Formula (IV) was 405 nm and that of MitoTracker Deep Red FM was 633 nm. The Pearson's coefficient was determined by the program Image J (version 1.45k). For imaging of intracellular H2O2, HeLa cells in growth medium were seeded on a sterilized coverslip in a 35-mm tissue culture dish and grown at 37° C. under a 5% CO2 atmosphere for 48 h. The medium was removed and the cells were incubated with metal complex of Formula (IV) (10 μM) in growth medium/DMSO (99:1, v/v) for 1 h. The stained cells were washed with PBS (1 mL×3) and further treated with H2O2 (1 mM) in growth medium for another 2 h. Prior to imaging, the cells were washed with PBS (1 mL×3), mounted onto a sterilized glass slide, and then imaged using a Leica TCS SPE confocal microscope with an oil immersion 63× objective.\nThe use of metal complex of Formula (IV) for intracellular H2O2-sensing was evaluated by laser-scanning confocal microscopy. […] (FIG. 10D to 10F). This implies that the internalization of metal complex of Formula (IV) involved an energy-requiring pathway such as endocytosis.\nWith reference to FIG. 11A to 11C, the metal complex of Formula (IV) was localized in the mitochondria (Pearson's coefficient: 0.99)."}, "[8]": {"settings": "Potassium phosphate buffer (50 mM, pH 7.4)/MeOH (7:3, v/v)"}}, "data": [{"molecule": "O=S(=O)([O-])C(F)(F)F.[C-]#[O+].[C-]#[O+].[C-]#[O+].[Re+].c1ccncc1.c1cnc2c(c1)ccc1cccnc12", "note": "[[Re(phen)(CO)3(pyridine)](CF3SO3)]", "values": [{"measurement": "φem of standard solution", "setting": "[1]", "result": 0.18}]}, {"molecule": "[Re(Ph2-phen)(CO)3(py-3-C(═O)C(═O)C6H3(NH2)(NO2)](CF3SO3) [Metal complex of Formula (IV)]", "values": [{"measurement": "Φem", "setting": "[2]; CH3CN", "result": 0.007}, {"measurement": "λem", "setting": "[2]; CH3CN", "result": 554, "unit": "nm"}, {"measurement": "τo", "setting": "[2]; CH3CN", "result": 4.83, "unit": "μs"}, {"measurement": "Φem", "setting": "[2]; [8]", "result": 0.005}, {"measurement": "λem", "setting": "[2]; [8]", "result": 557, "unit": "nm"}, {"measurement": "τo", "setting": "[2]; [8]", "result": 3.14, "unit": "μs"}, {"measurement": "luminescence quantum yield", "setting": "[2]; upon irradiation, very weak MLCT emission", "result": "< 0.007"}, {"measurement": "pseudo first-order rate constant (kobs)", "setting": "[3]; complex 10 μM, H2O2 (1 mM), aerated potassium phosphate buffer (50 mM, pH 7.4)/DMSO (99:1, v/v)", "result": "(0.6375±0.0092)×10^−3 s^−1"}, {"measurement": "second-order rate constant", "setting": "[3]; slope of kobs versus [H2O2], potassium phosphate buffer (50 mM, pH 7.4)/DMSO (99:1, v/v)", "result": "0.7301 ± 0.0134", "unit": "M⁻¹ s⁻¹"}, {"measurement": "emission enhancement (I/I0)", "setting": "[4]; [H2O2]=250 μM, 1.5 h", "result": 20.6}, {"measurement": "H2O2 concentration range of good linearity of emission intensity enhancement", "setting": "[4]", "result": "0 to 50", "unit": "µM"}, {"measurement": "detection limit for H2O2", "setting": "[4]", "result": 1.84, "unit": "µM"}, {"measurement": "emission response toward H2O2", "setting": "[5]; H2O2 100 μM", "result": "significant emission enhancement"}, {"measurement": "emission response toward TBHP, 1O2, OH., NO, O2−, ClO−", "setting": "[5]; ROS 100 μM", "result": "did not induce any significant changes in the emission intensity"}, {"measurement": "cytotoxic effect under imaging experiment conditions", "setting": "HeLa cells [6]; 10 μM, 1 h", "result": "would not cause significant cytotoxic effect"}, {"measurement": "IC50", "setting": "HeLa cells [6]; HeLa cells, 48 h, MTT", "result": "3.34 ± 0.05", "unit": "µM"}, {"measurement": "emission intensity of the cells at lowered incubation temperature", "setting": "HeLa cells [7]; HeLa cells, 10 μM, 1 h, 4° C.", "result": "significantly reduced"}, {"measurement": "intracellular emission", "setting": "HeLa cells [7]; HeLa cells, 10 μM, 1 h, 37° C.", "result": "weak intracellular emission in the perinuclear region"}, {"measurement": "intracellular emission intensity after incubation with H2O2", "setting": "HeLa cells [7]; complex-stained HeLa cells, H2O2 1 mM, 2 h", "result": "significantly enhanced"}]}]}
